Measured values published in US20190127366A1 (LifeSci Pharmaceuticals, Inc., priority 2015, published 2019).

Target: T1, human complement factor D (Homo sapiens, UniProt P00746)
T1 construct: purchased R&D Systems 1824-SE
Experiment: In vitro enzyme inhibition (Z-Lys-SBzl/DTNB absorbance assay)
Type: biochemical
Details: Complement Factor D (R&D Systems), substrate Z-Lys-SBzl, A405 nm; read-out: CFD IC50
Protocol: The ability of the compounds disclosed herein to inhibit human complement factor D inhibitory activity was quantified according to the 12-step protocol provided below. • 1. Prepare assay buffer: 50 mM Tris/HCl, pH 7.5, 1 M NaCl. • 2. Dilute 10 mM Complement Factor D inhibitor Nafamostat Mesilate (Selleckchem, Catalog #S1386) solution from 10000 μM to 9.77 μM in 100% DMSO, 8 concentrations. Then dilute the serial concentrations of Nafamostat Mesilate 20-fold in assay buffer. • 3. Add 10 μl diluted Nafamostat Mesilate duplicated into each of the inhibitor control well of a 96-well plate (Corning, Catalog #3599). Final concentrations were 50 μM, 25 μM, 12.5 μM, 6.25 μM, 3.125 μM, 0.781 μM, 0.195 μM and 0.049 μM. 0.5% DMSO was in each well finally. • 4. Dilute 20 mM test compounds from 10000 μM to […] in 100% DMSO, 6-fold dilution, 8 concentrations. Then dilute the serial concentrations of test compounds 20-fold in assay buffer. • 5. Add 10 μl diluted test compounds duplicated into the 96-well plate. Final concentrations were 50 μM, 8.33 μM, 1.39 μM, 0.23 μM, 0.0386 μM, 0.0064 μM, 0.0011 μM and 0.0002 μM. 0.5% DMSO was in each well finally. • 6. Dilute 20 mM substrate Z-Lys-SBzl (Bachem, Cat #M-1300) to 200 μM in assay buffer with 200 μM DTNB(Sigma, Catalog #D8130). • 7. Dilute 738 ng/μL Complement Factor D (R&D Systems, Catalog #1824-SE) to 6.25 ng/μL in assay buffer. Add 40 μl diluted Complement Factor D in the 96-well plate. • 8. Positive control well contains Complement Factor D without test compound. Negative control well contains neither Complement Factor D nor test compound. Using assay buffer, bring the total volume of all controls to 50 μl. • 9. Pre-incubate the plate for 5 min at room temperature. • 10. Add 50 μl of diluted substrate/DTNB mixture into each well. Mix the reagents completely by shaking the plate gently for 30 sec. • 11. For kinetic reading: Immediately start measuring absorbance (A405 nm) continuously and record data every 30sec for 60 min. • 12. Data analysis • Inhibition activity of compound was evaluated by IC50. IC50 was calculated according the dose-response curve of compound fitted using GraphPadPrism with “log(inhibitor)-response (variable slope)” equation. • % inhibition was calculated by using following equation:
[formula] • Mean(NC): The average value of the negative control wells' A405 nm values. • Mean(PC): The average value of the positive control wells' A405 nm values.
The ability of the compounds in Table 2 to inhibit human complement factor D inhibitory activity was determined.

T1 sequence (P00746 26-253): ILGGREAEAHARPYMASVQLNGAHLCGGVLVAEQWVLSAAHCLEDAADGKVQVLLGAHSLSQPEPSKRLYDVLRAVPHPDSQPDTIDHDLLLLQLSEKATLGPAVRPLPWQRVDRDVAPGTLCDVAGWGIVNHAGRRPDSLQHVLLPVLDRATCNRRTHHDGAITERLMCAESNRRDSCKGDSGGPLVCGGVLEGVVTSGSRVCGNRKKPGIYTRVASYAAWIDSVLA

Row | IC50 [nM] | SMILES
1 | 1000 to 10000 | NC(=O)c1nn(CC(=O)N2CCNCCC2C(=O)NCc2cccc(Cl)c2F)c2ccccc12 (centres unmarked) [Example 35, 1-(2-(7-((3-chloro-2-fluorobenzyl)carbamoyl)-1,4-diazepan-1-yl)-2-oxoethyl)-1H-indazole-3-carboxamide 2,2,2-trifluoroacetate]
2 | 1000 to 10000 | NC(=O)c1nn(CC(=O)N2[C@@H]3CC[C@@H](C3)[C@H]2C(=O)Nc2ccc(CO)c(Cl)n2)c2ccccc12 [Example 108, 1-(2-((1R,3S,4S)-3-((6-chloro-5-(hydroxymethyl)pyridin-2-yl)carbamoyl)-2-azabicyclo[2.2.1]heptan-2-yl)-2-oxoethyl)-1H-indazole-3-carboxamide]
3 | 100 to 1000 | NC(=O)c1nn(CC(=O)N2[C@@H]3CC[C@@H](C3)[C@H]2C(=O)Nc2cccc(Cl)n2)c2cnccc12 [Example 2, 1-(2-((1R,3S,4S)-3-((6-chloropyridin-2-yl)carbamoyl)-2-azabicyclo[2.2.1]heptan-2-yl)-2-oxoethyl)-1H-pyrazolo[3,4-c]pyridine-3-carboxamide]
4 | 100 to 1000 | Cc1ccc(NC(=O)[C@@H]2[C@H]3CC[C@H](C3)N2C(=O)Cn2nc(C(N)=O)c3ccccc32)nc1Cl [Example 68, 1-(2-((1R,3S,4S)-3-((6-chloro-5-methylpyridin-2-yl)carbamoyl)-2-azabicyclo[2.2.1]heptan-2-yl)-2-oxoethyl)-1H-indazole-3-carboxamide 2,2,2-trifluoroacetate]
5 | 1000 to 10000 | COC(=O)c1ccc(NC(=O)[C@@H]2[C@H]3CC[C@H](C3)N2C(=O)Cn2nc(C(N)=O)c3ccccc32)nc1Cl [Example 107, Methyl 6-((1R,3S,4S)-2-(2-(3-carbamoyl-1H-indazol-1-yl)acetyl)-2-azabicyclo[2.2.1]heptane-3-carboxamido)-2-chloronicotinate]
6 | 100 to 1000 | NC(=O)c1ccc2c(C(N)=O)nn(CC(=O)N3[C@@H]4CC[C@@H](C4)[C@H]3C(=O)Nc3cccc(Cl)n3)c2c1 [Example 124, 1-(2-((1R,3S,4S)-3-((6-chloropyridin-2-yl)carbamoyl)-2-azabicyclo[2.2.1]heptan-2-yl)-2-oxoethyl)-1H-indazole-3,6-dicarboxamide]
7 | 100 to 1000 | Cc1ccc2c(c1)c(C(N)=O)nn2CC(=O)N1[C@@H]2CC[C@@H](C2)[C@H]1C(=O)NCc1cccc(Cl)c1F [Example 60, 1-(2-((1R,3S,4S)-3-((3-chloro-2-fluorobenzyl)carbamoyl)-2-azabicyclo[2.2.1]heptan-2-yl)-2-oxoethyl)-5-methyl-1H-indazole-3-carboxamide]
8 | 1000 to 10000 | NC(=O)c1nn(CC(=O)N2[C@@H]3CC[C@@H](C3)[C@H]2C(=O)NC(CO)c2cccc(Cl)c2F)c2ccccc12 (stereo partly drawn) [Example 138, 1-(2-((1R,3S,4S)-3-((1-(3-chloro-2-fluorophenyl)-2-hydroxyethyl)carbamoyl)-2-azabicyclo[2.2.1]heptan-2-yl)-2-oxoethyl)-1H-indazole-3-carboxamide]
9 | 100 to 1000 | NC(=O)c1cc(Cl)nc(NC(=O)[C@@H]2[C@H]3CC[C@H](C3)N2C(=O)Cn2nc(C(N)=O)c3ccccc32)c1 [Example 106, 1-(2-((1R,3S,4S)-3-((4-carbamoyl-6-chloropyridin-2-yl)carbamoyl)-2-azabicyclo[2.2.1]heptan-2-yl)-2-oxoethyl)-1H-indazole-3-carboxamide]
10 | 1000 to 10000 | COC(=O)c1nn(CC(=O)N2[C@@H]3CC[C@@H](C3)[C@H]2C(=O)Nc2cccc(Cl)n2)c2ccccc12 [Example 82, methyl 1-(2-((1R,3S,4S)-3-((6-chloropyridin-2-yl)carbamoyl)-2-azabicyclo[2.2.1]heptan-2-yl)-2-oxoethyl)-1H-indazole-3-carboxylate]
11 | 1000 to 10000 | NC(=O)c1nn(CC(=O)N2[C@@H]3CC[C@@H](C3)[C@H]2C(=O)NCc2cccc(Cl)c2F)c2ccc(CC(=O)O)cc12 [Example 131]
12 | > 10000 | NC(=O)c1nn(CC(=O)N2[C@@H](C(=O)Nc3cccc(Cl)n3)C[C@H]3CCC[C@H]32)c2ccccc12 [Example 171, 1-(2-((2R,3aR,6aR)-2-((6-chloropyridin-2-yl)carbamoyl)hexahydrocyclopenta[b]pyrrol-1(2H)-yl)-2-oxoethyl)-1H-indazole-3-carboxamide]
13 | 1000 to 10000 | NC(=O)c1nn(CC(=O)N2[C@@H]3CC[C@@H](C3)[C@H]2C(=O)Nc2cccc(OC(F)(F)F)c2F)c2ccccc12 [Example 41, 1-(2-((1R,3S,4S)-3-((2-fluoro-3-(trifluoromethoxy)phenyl)carbamoyl)-2-azabicyclo[2.2.1]heptan-2-yl)-2-oxoethyl)-1H-indazole-3-carboxamide]
14 | > 10000 | Cc1cc(C)nc(NC(=O)[C@@H]2[C@H]3CC[C@H](C3)N2C(=O)Cn2nc(C(N)=O)c3ccccc32)c1 [Example 67, 1-(2-((1R,3S,4S)-3-((4,6-dimethylpyridin-2-yl)carbamoyl)-2-azabicyclo[2.2.1]heptan-2-yl)-2-oxoethyl)-1H-indazole-3-carboxamide 2,2,2-trifluoroacetate]
15 | 100 to 1000 | COc1cc(Cl)nc(NC(=O)[C@@H]2[C@H]3CC[C@H](C3)N2C(=O)Cn2nc(C(N)=O)c3ccccc32)c1 [Example 97, 1-(2-((1R,3S,4S)-3-((6-chloro-4-methoxypyridin-2-yl)carbamoyl)-2-azabicyclo[2.2.1]heptan-2-yl)-2-oxoethyl)-1H-indazole-3-carboxamide]
16 | 1000 to 10000 | NC(=O)c1nn(CC(=O)N2[C@H](CO)C[C@H]2C(=O)NCc2cccc(Cl)c2F)c2ccccc12 [Example 197, 1-(2-(trans-2-((3-chloro-2-fluorobenzyl)carbamoyl)-4-(hydroxymethyl)azetidin-1-yl)-2-oxoethyl)-1H-indazole-3-carboxamide]
17 | 1000 to 10000 | NC(=O)c1nn(CC(=O)N2CCCCC[C@H]2C(=O)Nc2cccc(Cl)c2F)c2ccccc12 [Example 32, (S)-1-(2-(2-((3-chloro-2-fluorophenyl)carbamoyl)azepan-1-yl)-2-oxoethyl)-1H-indazole-3-carboxamide]
18 | 1000 to 10000 | NC(=O)c1nn(CC(=O)N2[C@@H]3CC[C@@H](C3)[C@H]2C(=O)NCc2c(CO)ccc(Cl)c2F)c2ccccc12 [Example 120, 1-(2-((1R,3S,4S)-3-((3-chloro-2-fluoro-6-(hydroxymethyl)benzyl)carbamoyl)-2-azabicyclo[2.2.1]heptan-2-yl)-2-oxoethyl)-1H-indazole-3-carboxamide]
19 | 100 to 1000 | NC(=O)c1nn(CC(=O)N2[C@@H]3CC[C@@H](C3)[C@H]2C(=O)Nc2cccc(Cl)n2)c2ccc(F)cc12 [Example 62, 1-(2-((1R,3S,4S)-3-((6-chloropyridin-2-yl)carbamoyl)-2-azabicyclo[2.2.1]heptan-2-yl)-2-oxoethyl)-5-fluoro-1H-indazole-3-carboxamide]
20 | 100 to 1000 | NC(=O)n1nc(CC(=O)N2[C@@H]3CC[C@@H](C3)[C@H]2C(=O)NCc2cccc(Cl)c2F)c2ccccc21 [Example 100, 3-(2-((1R,3S,4S)-3-((3-chloro-2-fluorobenzyl)carbamoyl)-2-azabicyclo[2.2.1]heptan-2-yl)-2-oxoethyl)-1H-indazole-1-carboxamide]
21 | 100 to 1000 | COc1ccc2c(c1)c(C(C)=O)nn2CC(=O)N1[C@@H]2CC[C@@H](C2)[C@H]1C(=O)Nc1cccc(Cl)n1 [Example 79, (1R,3S,4S)-2-(2-(3-acetyl-5-methoxy-1H-indazol-1-yl)acetyl)-N-(6-chloropyridin-2-yl)-2-azabicyclo[2.2.1]heptane-3-carboxamide]
22 | 1000 to 10000 | NC(=O)c1ccc(Cl)c(F)c1CNC(=O)[C@@H]1[C@H]2CC[C@H](C2)N1C(=O)Cn1nc(C(N)=O)c2ccccc21 [Example 118, 1-(2-((1R,3S,4S)-3-((6-carbamoyl-3-chloro-2-fluorobenzyl)carbamoyl)-2-azabicyclo[2.2.1]heptan-2-yl)-2-oxoethyl)-1H-indazole-3-carboxamide]
23 | 100 to 1000 | NC(=O)c1nn(CC(=O)N2[C@H](C(=O)Nc3cccc(Br)n3)C[C@@H]3CCC[C@@H]32)c2ccccc12 [Example 164, 1-(2-((2S,3aS,6aS)-2-((6-bromopyridin-2-yl)carbamoyl)hexahydrocyclopenta[b]pyrrol-1(2H)-yl)-2-oxoethyl)-1H-indazole-3-carboxamide]
